The values that follow come from patent US20090197960A1, “Method of Inhibiting Polyneuropathic Pain with 3-(2-Dimethylaminomethylcyclohexyl) Phenol” (Gruenenthal GmbH, priority 2008, published 2009).

Each structure is given as a SMILES string.

Assay [1] relates to cold allodynia in polyneuropathic pain. Kind of assay: Polyneuropathic pain model according to Authier (vincristine-induced), cold allodynia with acetone drop. The format is in vivo, Sprague Dawley rats. The method, then:
(§1) Male Sprague Dawley rats (140-180 g, Janvier, France) were kept under standard conditions (06.00-18.00 light, 18.00-06.00 darkness; 20-24° C. room temperature, 35-70% relative humidity; tap water and standard feed (ad libitum)) in groups of five animals in Macrolon type 4 cages.
The investigation was carried out according to Authier et al., Neuroreport, 1999, 10, 965-8.
Three days after the final vincristine treatment, the animals had developed hypersensitivity to cold (cold allodynia) which continued over a period of three weeks. For testing, the animals were placed under a plastic cover on a grating and, after habituation, cold allodynia was quantified. To this end, a drop of acetone (10 μl) was carefully applied onto a hind paw with a syringe and a thin plastic tube. The number of induced withdrawal responses (shaking, stamping or licking) was recorded over a period of 30 sec. The cumulative number from 5 stimulations (at 5 min intervals from one another) was determined before and at different times after administration of the substance or the vehicle. The percentage inhibition value (% MPE) was determined in comparison with the particular pretest (0% MPE) and with the weekly vehicle control group (100% MPE=0 withdrawal responses). The size of the group was usually n=10. The significance of a substance's action was determined on the basis of the percentage inhibition value relative to the vehicle group by means of bifactorial analysis of variance and post hoc Bonferroni analysis, the ED50 value by linear regression analysis for the individual measurement points.

The test system of assay [2] is cold allodynia in mononeuropathic pain. Description: Mononeuropathic pain model according to Bennett (ischial nerve ligatures), cold allodynia on cold metal plate at 4° C. The format is in vivo, Sprague Dawley rats. Here is the method:
as §1
The investigation was carried out according to Bennett et al., Pain, 1988, 33, 87-107.
Under pentobarbital anaesthesia (Narcocen, 60 mg/kg i.p., Merial GmbH, Germany), four loose ligatures were placed unilaterally on the right ischial nerve. On the paw innervated by the damaged nerve, the animals developed hypersensitivity which, after one week's convalescence, was quantified over a period of approx. four weeks using a cold metal plate at 4° C. (cold allodynia). The animals were observed on this plate for a period of 2 min. and the number of withdrawal responses by the damaged paw was measured. The action of the substance, relative to the preliminary value before administration of the substance, was determined over a period of one hour at four different times (15, 30, 45, 60 min after administration). The inhibition of cold allodynia at the individual measurement times was stated in percent relative to the individual pretest (% MPE), with the pretest corresponding to 0% MPE and complete inhibition (0 withdrawal responses per 2 min) to 100% MPE. Group size was n=10. The significance of a substance's action was determined on the basis of the percentage inhibition values relative to the vehicle group by bifactorial analysis of variance and post hoc Bonferroni analysis, the ED50 value by linear regression analysis for the individual measurement points or the area under the curve (AUC).

Assay [3] has as its system pain in diabetic polyneuropathy. Conditions: number of patients treated for one patient to experience more than 50% pain relief; cited from earlier work.
The subject of assay [4] is pain in post-herpetic neuralgia. The settings on record: number of patients treated for one patient to experience more than 50% pain relief; cited from earlier work.

For the compound `CN(C)C[C@@H]1CCCC[C@H]1c1cccc(O)c1` [(1R,2R)-3-(2-Dimethylaminomethylcyclohexyl)phenol], the “dose of significant inhibition, mononeuropathic versus polyneuropathic pain model” value in assay [1] (21.5 mg/kg i.p. versus 4.64 mg/kg i.p.) is given as “more than four times higher”. For the same compound, the “inhibition of cold allodynia (in words)” value in assay [1] (10-21.5 mg/kg i.p.) and in assay [2] (10-31.6 mg/kg i.p.) was “dose-dependent inhibition” in each case. Further, the maximum effect in assay [1] (30 min after administration of 21.5 mg/kg) stood at 74 % MPE; in assay [2] (15 min after administration of 31.6 mg/kg), 80 % MPE. In addition, the ED50 was found to be 5.7 mg/kg in assay [1] (Rattus norvegicus, ip, 0.5 h, 30 min after administration, i.p., polyneuropathic pain model, read-out: ED50 value (95% VB)) and 17.6 mg/kg in assay [2] (Rattus norvegicus, ip, 0.5 h, 30 min after administration, i.p., mononeuropathic pain model, read-out: ED50 value (95% VB)). For the same compound, the “efficacy in polyneuropathic pain relative to mononeuropathic pain in an animal model” value in assay [1] (animal model) is “approx. four times greater”. For the same compound, the “inhibition of cold allodynia, Mean” value in assay [1] (dose 2.15 (mg/kg i.p.), 30 min) is given as 48.4 % MPE; in assay [1] (dose 2.15 (mg/kg i.p.), 180 min) it was −37.7 % MPE; in assay [1] (dose 4.64 (mg/kg i.p.), 30 min), 67.9 % MPE; in assay [1] (dose 4.64 (mg/kg i.p.), 180 min) it was 22.6 % MPE; in assay [1] (dose 10 (first dose line of the table, i.p.), 30 min), −28.9 % MPE; in assay [1] (dose 10 (first dose line of the table, i.p.), 180 min) it was −22.2 % MPE. For the same compound, the “inhibition of cold allodynia, Mean” value in assay [1] (dose 10 (fourth dose line of the table, mg/kg i.p.), 30 min) is 58.7 % MPE; in assay [1] (dose 10 (fourth dose line of the table, mg/kg i.p.), 180 min) it was 20.8 % MPE; in assay [1] (dose 21.5 (mg/kg i.p.), 30 min), 74.2 % MPE; in assay [1] (dose 21.5 (mg/kg i.p.), 180 min), 15.2 % MPE; in assay [2] (dose 10 (mg/kg i.p.), 15 min after administration) it was 22.16 % MPE; in assay [2] (dose 10 (mg/kg i.p.), 30 min after administration) it was 20.93 % MPE. For the same compound, the “inhibition of cold allodynia, Mean” value amounted to 8.60 % MPE in assay [2] (dose 10 (mg/kg i.p.), 45 min after administration); 9.23 % MPE in assay [2] (dose 10 (mg/kg i.p.), 60 min after administration); 56.62 % MPE in assay [2] (dose 21.5 (mg/kg i.p.), 15 min after administration); 61.06 % MPE in assay [2] (dose 21.5 (mg/kg i.p.), 30 min after administration); 34.96 % MPE in assay [2] (dose 21.5 (mg/kg i.p.), 45 min after administration); 16.33 % MPE in assay [2] (dose 21.5 (mg/kg i.p.), 60 min after administration). Also, the “inhibition of cold allodynia, Mean” value is 80.03 % MPE in assay [2] (dose 31.6 (mg/kg i.p.), 15 min after administration); 79.15 % MPE in assay [2] (dose 31.6 (mg/kg i.p.), 30 min after administration); 61.68 % MPE in assay [2] (dose 31.6 (mg/kg i.p.), 45 min after administration); 21.18 % MPE in assay [2] (dose 31.6 (mg/kg i.p.), 60 min after administration). The “minimally active dose at which a statistically significant inhibition was obtained” value in assay [1] (i.p., polyneuropathic pain model) was 4.64 mg/kg; in assay [2] (i.p., mononeuropathic pain model), 21.5 mg/kg.
On to `COc1cc(CNC(=O)CCCC/C=C/C(C)C)ccc1O` [Capsaicin], for which the “NNT (Numbers Needed to Treat)” value in assay [3] is given as 5.9; in assay [4], 5.3.
`NC(=O)N1c2ccccc2C=Cc2ccccc21` [Carbamazepine]: the “NNT (Numbers Needed to Treat)” value in assay [3] is 3.3.
As for `NCC1(CC(=O)O)CCCCC1` [Gabapentin], the “NNT (Numbers Needed to Treat)” value in assay [3] is reported as 3.7; in assay [4], 3.2.
With `CN(C)CCCN1c2ccccc2CCc2ccccc21` [Imipramine], the “NNT (Numbers Needed to Treat)” value in assay [3] is on record as 1.4.
On to `N[C@@H](Cc1ccc(O)c(O)c1)C(=O)O` [L-Dopa], for which the “NNT (Numbers Needed to Treat)” value in assay [3] is 3.4.
Regarding `Cc1cccc(C)c1OCC(C)N` (stereo not shown) [Mexiletine], in assay [3], the “NNT (Numbers Needed to Treat)” value was 10.0.
Consider `COc1ccc2c(c1)[C@]13CCCC[C@@H]1[C@H](C2)N(C)CC3` [Oextromethorphan], for which the “NNT (Numbers Needed to Treat)” value in assay [3] was 1.9.
For the compound `COc1ccc2c3c1O[C@H]1C(=O)CC[C@@]4(O)[C@@H](C2)N(C)CC[C@]314` [Oxycodone], the “NNT (Numbers Needed to Treat)” value in assay [4] was 2.5.
Regarding `COc1cccc(C2(O)CCCCC2CN(C)C)c1` (stereo not shown) [Tramadol], the “NNT (Numbers Needed to Treat)” value in assay [3] is reported as 3.4.
